According to patent EP4467141A1, “PYRAZOLO-QUINOLINES AS SELECTIVE INHIBITORS OF GENOTOXIC STRESS-INDUCED IKK/NF- KB PATHWAYS FOR CANCER THERAPY” (Max-Delbrück-Centrum für Molekulare Medizin in der …, priority 2023, dated 2024):

Assays:
Experiment in all cases: Kinase panel study
Format in all cases: biochemical
Settings in all cases: read-out: Percentage of inhibition; for inhibition at 1 µM: 1000nM; for inhibition at 10 µM: 10000nM
[1] = target: T1, ABL1 E255K (Homo sapiens, UniProt P00519, E255K)
T1 construct: purchased Thermo Fisher Scientific
Outline: (§1)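 In vitro, kinase panel; ZLyte or Adapta SOP; single-concentration testing (1 or 10 µM); output = % inhibition, plus IC50 in panel.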

[2] = target: T2, CDK17/cyclin Y (Homo sapiens, UniProt Q00537)
T2 construct: purchased Thermo Fisher Scientific
Outline: as §1

[3] = target: T3, FLT4 (VEGFR3) (Homo sapiens, UniProt P35916)
T3 construct: purchased Thermo Fisher Scientific
Outline: as §1

[4] = target: T4, HIPK1 (Myak) (Homo sapiens, UniProt Q86Z02)
T4 construct: purchased Thermo Fisher Scientific
Outline: as §1

[5] = target: T5, LRRK2 FL (Homo sapiens, UniProt Q5S007)
T5 construct: LRRK2 FL; purchased Thermo Fisher Scientific
Outline: as §1

[6] = target: T6, MET (cMet) (Homo sapiens, UniProt P08581)
T6 construct: purchased Thermo Fisher Scientific
Outline: as §1

[7] = target: T7, NEK9 (Homo sapiens, UniProt Q8TD19)
T7 construct: purchased Thermo Fisher Scientific
T7 sequence (Q8TD19 1-979): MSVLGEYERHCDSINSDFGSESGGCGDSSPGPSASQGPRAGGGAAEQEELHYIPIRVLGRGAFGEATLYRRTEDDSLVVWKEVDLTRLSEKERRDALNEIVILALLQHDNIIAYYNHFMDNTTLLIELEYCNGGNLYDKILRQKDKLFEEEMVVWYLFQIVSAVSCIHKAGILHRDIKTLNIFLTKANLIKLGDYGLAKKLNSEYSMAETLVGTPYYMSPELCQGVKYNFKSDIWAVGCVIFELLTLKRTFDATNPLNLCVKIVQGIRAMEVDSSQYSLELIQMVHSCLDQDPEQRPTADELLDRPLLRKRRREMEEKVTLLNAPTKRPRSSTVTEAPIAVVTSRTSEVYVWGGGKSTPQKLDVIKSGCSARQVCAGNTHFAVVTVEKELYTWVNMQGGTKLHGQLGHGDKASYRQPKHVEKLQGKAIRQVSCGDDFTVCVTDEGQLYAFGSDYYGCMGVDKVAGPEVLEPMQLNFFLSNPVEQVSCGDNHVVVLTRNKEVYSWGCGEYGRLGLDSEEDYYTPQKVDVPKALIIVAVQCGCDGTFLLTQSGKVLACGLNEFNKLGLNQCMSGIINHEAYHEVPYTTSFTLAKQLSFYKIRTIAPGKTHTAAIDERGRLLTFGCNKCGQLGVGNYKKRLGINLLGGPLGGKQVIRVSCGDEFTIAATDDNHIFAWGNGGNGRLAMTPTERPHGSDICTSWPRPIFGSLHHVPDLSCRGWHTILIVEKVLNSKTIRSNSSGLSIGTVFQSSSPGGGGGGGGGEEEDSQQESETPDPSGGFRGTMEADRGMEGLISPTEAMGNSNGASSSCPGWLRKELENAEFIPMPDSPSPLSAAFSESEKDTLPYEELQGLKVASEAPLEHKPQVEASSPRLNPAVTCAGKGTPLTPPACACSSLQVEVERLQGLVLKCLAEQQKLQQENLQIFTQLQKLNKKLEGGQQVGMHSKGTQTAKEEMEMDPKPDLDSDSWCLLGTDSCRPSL
Outline: as §1

[8] = target: T8, PDGFRA D842V (Homo sapiens, UniProt P16234, D842V)
T8 construct: purchased Thermo Fisher Scientific
Outline: as §1

[9] = target: T9, PKN1 (PRK1) (Homo sapiens, UniProt Q16512)
T9 construct: purchased Thermo Fisher Scientific
Outline: as §1

T6 sequence (P08581 25-1390): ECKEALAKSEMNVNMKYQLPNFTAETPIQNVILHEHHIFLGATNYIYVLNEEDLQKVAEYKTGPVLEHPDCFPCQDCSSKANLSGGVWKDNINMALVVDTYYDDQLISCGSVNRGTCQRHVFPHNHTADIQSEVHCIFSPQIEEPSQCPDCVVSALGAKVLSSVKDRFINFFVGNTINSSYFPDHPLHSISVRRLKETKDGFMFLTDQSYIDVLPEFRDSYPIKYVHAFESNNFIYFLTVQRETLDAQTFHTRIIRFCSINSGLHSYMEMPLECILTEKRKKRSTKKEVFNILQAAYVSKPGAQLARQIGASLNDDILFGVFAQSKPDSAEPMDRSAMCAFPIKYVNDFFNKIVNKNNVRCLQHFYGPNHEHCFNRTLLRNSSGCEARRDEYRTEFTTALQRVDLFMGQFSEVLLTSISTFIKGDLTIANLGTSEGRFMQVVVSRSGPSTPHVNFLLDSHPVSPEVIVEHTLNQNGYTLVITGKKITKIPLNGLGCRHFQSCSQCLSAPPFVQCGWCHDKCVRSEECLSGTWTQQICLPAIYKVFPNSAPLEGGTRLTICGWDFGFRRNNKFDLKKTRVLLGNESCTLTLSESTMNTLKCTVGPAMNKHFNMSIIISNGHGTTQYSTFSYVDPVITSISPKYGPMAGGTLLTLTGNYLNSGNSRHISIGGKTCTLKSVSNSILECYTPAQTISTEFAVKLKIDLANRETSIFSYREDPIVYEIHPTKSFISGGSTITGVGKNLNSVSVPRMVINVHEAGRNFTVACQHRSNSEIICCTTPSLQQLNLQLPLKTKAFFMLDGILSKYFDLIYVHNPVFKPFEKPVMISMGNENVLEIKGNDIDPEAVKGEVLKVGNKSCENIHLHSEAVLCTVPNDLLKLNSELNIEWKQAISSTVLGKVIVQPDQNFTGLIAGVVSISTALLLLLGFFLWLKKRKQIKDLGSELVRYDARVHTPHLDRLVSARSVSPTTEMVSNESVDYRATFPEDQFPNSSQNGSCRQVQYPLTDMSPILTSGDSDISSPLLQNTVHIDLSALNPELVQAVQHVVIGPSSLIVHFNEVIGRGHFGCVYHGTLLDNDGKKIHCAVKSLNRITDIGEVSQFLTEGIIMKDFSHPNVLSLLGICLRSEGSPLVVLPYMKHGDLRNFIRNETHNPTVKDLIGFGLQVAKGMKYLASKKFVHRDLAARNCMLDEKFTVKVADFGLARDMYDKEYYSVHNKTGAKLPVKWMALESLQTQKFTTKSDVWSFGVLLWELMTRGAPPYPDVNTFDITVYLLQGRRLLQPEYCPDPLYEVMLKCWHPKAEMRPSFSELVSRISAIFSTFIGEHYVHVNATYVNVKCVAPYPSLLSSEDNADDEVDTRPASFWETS
T3 sequence (P35916 25-1363): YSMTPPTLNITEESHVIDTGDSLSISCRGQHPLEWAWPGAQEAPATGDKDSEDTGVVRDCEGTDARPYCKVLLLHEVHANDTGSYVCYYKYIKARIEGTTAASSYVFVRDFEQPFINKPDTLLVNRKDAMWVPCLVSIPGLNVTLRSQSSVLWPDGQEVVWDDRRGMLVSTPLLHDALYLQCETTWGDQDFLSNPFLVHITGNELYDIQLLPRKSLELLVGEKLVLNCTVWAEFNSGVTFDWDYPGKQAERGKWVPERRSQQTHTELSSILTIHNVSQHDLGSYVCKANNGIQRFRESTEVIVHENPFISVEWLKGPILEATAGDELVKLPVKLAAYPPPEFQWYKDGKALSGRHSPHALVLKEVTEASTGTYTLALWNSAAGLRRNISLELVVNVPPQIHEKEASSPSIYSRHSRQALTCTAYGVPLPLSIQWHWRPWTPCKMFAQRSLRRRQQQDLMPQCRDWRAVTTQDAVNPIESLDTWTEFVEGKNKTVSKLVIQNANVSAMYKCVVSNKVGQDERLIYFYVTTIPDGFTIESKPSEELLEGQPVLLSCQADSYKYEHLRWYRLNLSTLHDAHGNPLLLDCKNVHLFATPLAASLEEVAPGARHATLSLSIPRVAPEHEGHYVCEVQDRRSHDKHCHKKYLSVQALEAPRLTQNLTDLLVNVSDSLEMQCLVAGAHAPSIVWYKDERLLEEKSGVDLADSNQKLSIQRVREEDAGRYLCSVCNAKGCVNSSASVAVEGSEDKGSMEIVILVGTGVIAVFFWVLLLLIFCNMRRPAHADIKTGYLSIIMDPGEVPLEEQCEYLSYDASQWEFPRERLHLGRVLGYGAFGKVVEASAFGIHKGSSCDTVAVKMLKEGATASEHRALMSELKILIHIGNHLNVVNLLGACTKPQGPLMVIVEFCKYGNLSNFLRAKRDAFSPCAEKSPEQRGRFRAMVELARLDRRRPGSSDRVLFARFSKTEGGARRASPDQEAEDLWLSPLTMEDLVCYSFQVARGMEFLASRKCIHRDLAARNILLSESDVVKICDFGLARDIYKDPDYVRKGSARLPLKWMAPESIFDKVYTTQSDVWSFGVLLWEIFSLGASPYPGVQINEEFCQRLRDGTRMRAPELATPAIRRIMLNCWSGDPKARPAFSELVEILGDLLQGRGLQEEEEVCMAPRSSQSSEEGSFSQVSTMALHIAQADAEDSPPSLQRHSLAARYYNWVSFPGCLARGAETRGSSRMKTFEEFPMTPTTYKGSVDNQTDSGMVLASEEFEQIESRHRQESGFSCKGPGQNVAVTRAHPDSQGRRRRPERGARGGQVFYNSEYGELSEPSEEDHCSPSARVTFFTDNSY
T1 sequence (P00519 whole entry E255K): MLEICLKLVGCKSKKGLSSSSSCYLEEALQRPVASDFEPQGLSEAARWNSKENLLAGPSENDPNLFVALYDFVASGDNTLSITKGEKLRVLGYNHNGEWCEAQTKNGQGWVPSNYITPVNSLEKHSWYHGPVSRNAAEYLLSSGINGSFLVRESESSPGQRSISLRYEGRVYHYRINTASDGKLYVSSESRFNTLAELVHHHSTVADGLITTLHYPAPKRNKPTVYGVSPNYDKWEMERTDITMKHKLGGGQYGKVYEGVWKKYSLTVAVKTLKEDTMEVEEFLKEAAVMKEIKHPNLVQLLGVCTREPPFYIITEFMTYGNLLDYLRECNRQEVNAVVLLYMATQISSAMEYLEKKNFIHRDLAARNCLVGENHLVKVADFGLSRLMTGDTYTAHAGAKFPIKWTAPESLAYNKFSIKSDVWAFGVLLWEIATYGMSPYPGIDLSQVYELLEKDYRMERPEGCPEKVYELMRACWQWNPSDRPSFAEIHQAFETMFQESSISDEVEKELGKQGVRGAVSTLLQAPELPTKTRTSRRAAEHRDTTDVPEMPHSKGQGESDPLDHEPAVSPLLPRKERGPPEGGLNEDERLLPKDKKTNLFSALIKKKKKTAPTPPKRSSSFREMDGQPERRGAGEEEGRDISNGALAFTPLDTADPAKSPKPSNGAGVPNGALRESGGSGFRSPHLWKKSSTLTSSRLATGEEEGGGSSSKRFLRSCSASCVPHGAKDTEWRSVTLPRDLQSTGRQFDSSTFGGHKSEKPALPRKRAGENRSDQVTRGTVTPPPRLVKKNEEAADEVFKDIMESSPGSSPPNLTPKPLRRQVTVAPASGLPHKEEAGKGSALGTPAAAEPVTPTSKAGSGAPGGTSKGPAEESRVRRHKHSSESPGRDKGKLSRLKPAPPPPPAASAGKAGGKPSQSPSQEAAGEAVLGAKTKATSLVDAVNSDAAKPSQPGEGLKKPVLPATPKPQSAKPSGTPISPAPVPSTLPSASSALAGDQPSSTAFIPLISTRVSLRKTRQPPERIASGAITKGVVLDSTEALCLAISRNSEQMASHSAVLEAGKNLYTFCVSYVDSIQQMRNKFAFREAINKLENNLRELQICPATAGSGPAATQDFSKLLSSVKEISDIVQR
T9 sequence (Q16512 whole entry): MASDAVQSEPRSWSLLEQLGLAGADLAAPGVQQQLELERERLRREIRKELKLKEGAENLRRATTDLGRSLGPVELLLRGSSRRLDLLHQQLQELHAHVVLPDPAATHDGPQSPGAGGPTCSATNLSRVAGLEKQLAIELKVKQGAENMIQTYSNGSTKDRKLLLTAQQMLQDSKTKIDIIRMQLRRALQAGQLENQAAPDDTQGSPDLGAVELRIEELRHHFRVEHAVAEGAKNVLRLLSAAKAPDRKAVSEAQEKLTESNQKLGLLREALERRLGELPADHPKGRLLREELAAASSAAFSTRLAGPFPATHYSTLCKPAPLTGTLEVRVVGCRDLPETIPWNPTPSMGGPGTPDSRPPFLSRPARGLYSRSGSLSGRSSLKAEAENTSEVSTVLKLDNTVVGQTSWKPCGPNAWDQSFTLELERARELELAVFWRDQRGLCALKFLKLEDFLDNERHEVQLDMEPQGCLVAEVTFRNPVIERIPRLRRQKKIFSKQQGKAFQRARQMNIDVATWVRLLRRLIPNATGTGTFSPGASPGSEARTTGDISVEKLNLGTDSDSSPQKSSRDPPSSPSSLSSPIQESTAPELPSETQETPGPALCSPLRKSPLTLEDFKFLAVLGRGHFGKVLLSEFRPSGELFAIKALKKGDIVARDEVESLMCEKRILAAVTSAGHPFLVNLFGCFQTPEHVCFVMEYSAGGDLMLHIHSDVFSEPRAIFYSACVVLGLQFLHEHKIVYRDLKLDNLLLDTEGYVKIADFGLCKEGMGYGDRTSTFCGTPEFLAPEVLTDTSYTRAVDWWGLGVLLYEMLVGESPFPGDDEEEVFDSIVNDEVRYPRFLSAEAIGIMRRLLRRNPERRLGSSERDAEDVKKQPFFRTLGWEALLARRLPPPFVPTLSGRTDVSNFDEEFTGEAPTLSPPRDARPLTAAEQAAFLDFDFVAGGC

| Compound | inhibition at 1 µM [1] | inhibition at 10 µM [1] | inhibition at 1 µM [2] | inhibition at 10 µM [2] | inhibition at 1 µM [3] | inhibition at 10 µM [3] | inhibition at 1 µM [4] | inhibition at 10 µM [4] | inhibition at 1 µM [5] | inhibition at 10 µM [5] | inhibition at 1 µM [6] | inhibition at 10 µM [6] | inhibition at 1 µM [7] | inhibition at 10 µM [7] | inhibition at 1 µM [8] | inhibition at 10 µM [8] | inhibition at 1 µM [9] | inhibition at 10 µM [9] |
| --- | --- | --- | --- | --- | --- | --- | --- | --- | --- | --- | --- | --- | --- | --- | --- | --- | --- | --- |
| COc1ccc2c(c1OC)c(=O)n1c3ccc(O)cc3c3ccnc2c31 [MW01, 5-Hydroxy-10,11-dimethoxy-9H-benzo[c]indolo[3,2,1-ij][1,5]naphthyridin-9-one] | 7% | 11% | 3% | 9% | 13% | 31% | 21% | 47% | 85% | 90% | 14% | 35% | 4% | 9% | 3% | 35% | 9% | 16% |
| COc1ccc2cc3c(N)nn(C(=O)c4cccc(N(C)C)c4)c3nc2c1 [MW05, (3-Amino-7-methoxypyrazolo[3,4-b]quinolin-1-yl)-[3-(dimethylamino)phenyl]methanone] | 6% | 5% | 8% | 21% | 7% | -3% | -4% | -6% | -6% | 6% | 5% | -8% | 6% | 5% | -4% | -2% | 15% | 4% |
